The source of these data is patent US20190144423A1, “AMIDE-SUBSTITUTED PYRIDINYLTRIAZOLE DERIVATIVES AND USES THEREOF” (BAYER PHARMA AKTIENGESELLSCHAFT, priority 2016, published 2019).

Test [1] concerns the target T1, human V2 receptor (Homo sapiens, UniProt P30518).
T1 construct: expressed in transfected cells; host or cells: CHO K1 (ATCC) line expressing firefly luciferase under a CRE-responsive promoter
The test can be described thus: Cellular in vitro assay for determining vasopressin receptor activity (V2 cell line, CRE-luciferase). The test is classed as cell-based. The following applies: CHO cell line transfected with human V2 receptor; antagonism of [Arg8]-vasopressin at EC50; Table 1A, compounds of the invention; read-out: IC50 hV2. As for the experimental part: (§1) B-1. Cellular In Vitro Assay for Determining Vasopressin Receptor Activity
(§2) The identification of agonists and antagonists of the V1a and V2 vasopressin receptors from humans, rats and dogs as well as the quantification of the activity of the compounds of the invention is carried out using recombinant cell lines. These cell lines originally derive from a hamster's ovary epithelial cell (Chinese Hamster Ovary, CHO K1, ATCC: American Type Culture Collection, Manassas, Va. 20108, USA). The test cell lines constitutively express the human, rat or dog V1a or V2 receptors. In case of the Gαq-coupled V1a receptors, cells are also stably transfected with a modified form of the calcium-sensitive photoproteins aequorin (human and rat V1a) or obelin (dog V1a), which, after reconstitution with the cofactor coelenterazine, emit light when there are increases in free calcium concentrations [Rizzuto R, Simpson A W, Brini M, Pozzan T, Nature 358, 325-327 (1992); Illarionov B A, Bondar V S, Illarionova V A, Vysotski E S, Gene 153 (2), 273-274 (1995)]. The resulting vasopressin receptor cells react to stimulation of the recombinantly expressed V1a receptors by intracellular release of calcium ions, which can be quantified by the resulting photoprotein luminescence. The Gs-coupled V2 receptors are stably transfected into cell lines expressing the gene for firefly luciferase under control of a CRE-responsible promoter. Activation of V2 receptors induces the activation of the CRE-responsive promoter via cAMP increase, thereby inducing the expression of firefly luciferase. The light emitted by photoproteins of V1a cell lines as well as the light emitted by firefly luciferase of V2 cell lines corresponds to the activation or inhibition of the respective vasopressin receptor. The bioluminescence of the cell lines is detected using a suitable luminometer [Milligan G, Marshall F, Rees S, Trends in Pharmacological Sciences 17, 235-237 (1996)].
Vasopressin V2 Receptor Cell Lines:
On the day before the assay, the cells are plated out in culture medium (DMEM/F12, 2% FCS, 2 mM glutamine, 10 mM HEPES) in 384-well microtiter plates and kept in a cell incubator (96% humidity, 5% v/v CO2, 37° C.). On the day of the assay, test compounds in various concentrations and the agonist [Arg^s]-vasopressin at EC50 concentration are added together to the wells, and plates are incubated for 3 hours in a cell incubator. Upon addition of the cell lysis reagent Triton™ and the substrate luciferin, luminescence of firefly luciferase is measured in a luminometer.
(§3) Table 1A below lists individual IC50 values for the compounds of the invention (including racemic mixtures as well as separated enantiomers) that were obtained from cell lines transfected with the human V1a or V2 receptor: […]

For test [2], the target named is T2, human V1a receptor (Homo sapiens, UniProt P37288).
T2 construct: expressed in transfected cells; host or cells: CHO K1 (ATCC), also stably transfected with a modified aequorin
The experiment in a line: Cellular in vitro assay for determining vasopressin receptor activity (V1a cell line, aequorin luminescence). The class given is cell-based. The following applies: Table 1A, compounds of the invention; for IC50: CHO cell line transfected with human V1a receptor, antagonism of [Arg8]-vasopressin at EC50, read-out: IC50 hV1a; for ratio IC50 hV2/hV1a: selectivity ratio. As for the experimental part:
as §1, §2
Vasopressin V1a Receptor Cell Lines:
On the day before the assay, the cells are plated out in culture medium (DMEM/F12, 2% FCS, 2 mM glutamine, 10 mM HEPES, 5 μg/ml coelenterazine) in 384-well microtiter plates and kept in a cell incubator (96% humidity, 5% v/v CO2, 37° C.). On the day of the assay, test compounds in various concentrations are placed for 10 minutes in the wells of the microtiter plate before the agonist [Arg^8]-vasopressin at EC50 concentration is added. The resulting light signal is measured immediately in a luminometer.
as §3

T2 sequence (P37288 whole entry): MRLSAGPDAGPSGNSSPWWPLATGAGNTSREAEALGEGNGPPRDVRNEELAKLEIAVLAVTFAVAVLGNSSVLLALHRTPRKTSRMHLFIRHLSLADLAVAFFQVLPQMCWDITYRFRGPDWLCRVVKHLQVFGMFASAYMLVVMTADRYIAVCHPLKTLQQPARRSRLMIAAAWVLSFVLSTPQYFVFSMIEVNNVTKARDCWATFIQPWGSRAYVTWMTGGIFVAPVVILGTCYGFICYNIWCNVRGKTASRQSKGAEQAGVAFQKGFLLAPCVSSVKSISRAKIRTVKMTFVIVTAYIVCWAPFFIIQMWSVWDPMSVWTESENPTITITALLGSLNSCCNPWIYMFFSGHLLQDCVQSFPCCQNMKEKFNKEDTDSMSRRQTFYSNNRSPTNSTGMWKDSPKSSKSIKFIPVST
T1 sequence (P30518 whole entry): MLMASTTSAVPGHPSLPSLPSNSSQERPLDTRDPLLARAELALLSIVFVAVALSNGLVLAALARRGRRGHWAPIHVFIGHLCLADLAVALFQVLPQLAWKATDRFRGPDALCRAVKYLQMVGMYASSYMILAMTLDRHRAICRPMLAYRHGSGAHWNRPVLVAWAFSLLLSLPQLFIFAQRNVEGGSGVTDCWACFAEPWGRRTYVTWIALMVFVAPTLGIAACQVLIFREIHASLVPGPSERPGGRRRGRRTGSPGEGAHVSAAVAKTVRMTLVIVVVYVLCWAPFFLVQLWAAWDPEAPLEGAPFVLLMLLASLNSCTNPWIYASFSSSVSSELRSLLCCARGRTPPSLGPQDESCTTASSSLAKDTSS

For `NC(=O)c1cccnc1-n1nc(Cn2nc(-c3ccc(Cl)cc3)n(C[C@H](O)C(F)(F)F)c2=O)nc1C(N)=O` [Example 9, 2-[5-carbamoyl-3-({3-(4-chlorophenyl)-5-oxo-4-[(2S)-3,3,3-trifluoro-2-hydroxypropyl]-4,5-dihydro-1H-1,2,4-triazol-1-yl}methyl)-1H-1,2,4-triazol-1-yl]nicotinamide], in test [1], the IC50 (as a rule, the concentration needed to halve the response being measured) amounted to 2250 nM. In test [2], the IC50 came to 75 nM and the “ratio IC50 hV2/hV1a” value came out at 30.0.

For the compound `NC(=O)c1nc(Cn2nc(-c3ccc(Cl)cc3)n(C[C@@H](O)C(F)(F)F)c2=O)nn1-c1ncccc1C(F)(F)F` [Example 11, 3-({3-(4-Chlorophenyl)-5-oxo-4-[(2R)-3,3,3-trifluoro-2-hydroxypropyl]-4,5-dihydro-1H-1,2,4-triazol-1-yl}methyl)-1-[3-(trifluoromethyl)pyridin-2-yl]-1H-1,2,4-triazole-5-carboxamide], the IC50 in test [1] is 610 nM; in test [2], 3.1 nM.

As to `NC(=O)c1nc(Cn2nc(-c3ccc(Cl)cc3)n(C[C@H](O)C(F)(F)F)c2=O)nn1-c1cnccc1C(F)(F)F` [Example 7, 3-({3-(4-Chlorophenyl)-5-oxo-4-[(2S)-3,3,3-trifluoro-2-hydroxypropyl]-4,5-dihydro-1H-1,2,4-triazol-1-yl}methyl)-1-[4-(trifluoromethyl)pyridin-3-yl]-1H-1,2,4-triazole-5-carboxamide], the IC50 stood at 293 nM in test [1] and 2.5 nM in test [2].

For `NC(=O)c1nc(Cn2nc(-c3ccc(Cl)cc3)n(C[C@H](O)C(F)(F)F)c2=O)nn1-c1ncccc1C(F)(F)F` [Example 2, 3-({3-(4-Chlorophenyl)-5-oxo-4-[(2S)-3,3,3-trifluoro-2-hydroxypropyl]-4,5-dihydro-1H-1,2,4-triazol-1-yl}methyl)-1-[3-(trifluoromethyl)pyridin-2-yl]-1H-1,2,4-triazole-5-carboxamide], the IC50 came out at 170 nM in test [1] and 1.2 nM in test [2].

For the compound `NC(=O)c1nc(Cn2nc(-c3ccc(Cl)cc3)n(C[C@@H](O)C(F)(F)F)c2=O)nn1-c1cnccc1Cl` [Example 12, 3-({3-(4-Chlorophenyl)-5-oxo-4-[(2R)-3,3,3-trifluoro-2-hydroxypropyl]-4,5-dihydro-H-1,2,4-triazol-1-yl}methyl)-1-(4-chloropyridin-3-yl)-1H-1,2,4-triazole-5-carboxamide], the IC50 in test [1] came out at 860 nM; in test [2], 3.45 nM.

As to `NC(=O)c1nc(Cn2nc(-c3ccc(Cl)cc3)n(C[C@H](O)C(F)(F)F)c2=O)nn1-c1ncccc1OC(F)(F)F` [Example 3, 3-({3-(4-Chlorophenyl)-5-oxo-4-[(2S)-3,3,3-trifluoro-2-hydroxypropyl]-4,5-dihydro-1H-1,2,4-triazol-1-yl}methyl)-1-[3-(trifluoromethoxy)pyridin-2-yl]-1H-1,2,4-triazole-5-carboxamide], the concentration for half-maximal inhibition (IC50) was 875 nM in test [1] and 16 nM in test [2].

As for `NC(=O)c1nc(Cn2nc(-c3ccc(Cl)cc3)n(CC(=O)C(F)(F)F)c2=O)nn1-c1ncccc1Cl` [Example 14, 3-{[3-(4-Chlorophenyl)-5-oxo-4-(3,3,3-trifluoro-2-oxopropyl)-4,5-dihydro-H-1,2,4-triazol-1-yl]methyl}-1-(3-chloropyridin-2-yl)-1H-1,2,4-triazole-5-carboxamide], the IC50 in test [1] is 104 nM. In test [2], the concentration for half-maximal inhibition (IC50) is 5.2 nM and the “ratio IC50 hV2/hV1a” value amounted to 20.0.

Consider `CCOC(=O)c1ccncc1-n1nc(Cn2nc(-c3ccc(Cl)cc3)n(C[C@H](O)C(F)(F)F)c2=O)nc1C(N)=O` [Example 8, Ethyl 3-[5-carbamoyl-3-({3-(4-chlorophenyl)-5-oxo-4-[(2S)-3,3,3-trifluoro-2-hydroxypropyl]-4,5-dihydro-1H-1,2,4-triazol-1-yl}methyl)-1H-1,2,4-triazol-1-yl]isonicotinate], for which the IC50 in test [1] was 892 nM. For the same compound, in test [2], the IC50 was 25.5 nM and the “ratio IC50 hV2/hV1a” value is on record as 35.0.

Take `NC(=O)c1nc(Cn2nc(-c3ccc(Cl)cc3)n(CC(=O)C(F)(F)F)c2=O)nn1-c1ncccc1C(F)(F)F` [Example 17, 3-{[3-(4-Chlorophenyl)-5-oxo-4-(3,3,3-trifluoro-2-oxopropyl)-4,5-dihydro-H-1,2,4-triazol-1-yl]methyl}-1-[3-(trifluoromethyl)pyridin-2-yl]-1H-1,2,4-triazole-5-carboxamide]: in test [2], the “ratio IC50 hV2/hV1a” value is recorded as 66.0.

In the case of `NC(=O)c1nc(Cn2nc(-c3ccc(Cl)cc3)n(CC(=O)C(F)(F)F)c2=O)nn1-c1cnccc1Cl` [Example 16, 3-{[3-(4-Chlorophenyl)-5-oxo-4-(3,3,3-trifluoro-2-oxopropyl)-4,5-dihydro-1H-1,2,4-triazol-1-yl]methyl}-1-(4-chloropyridin-3-yl)-1H-1,2,4-triazole-5-carboxamide], the IC50 is 75 nM in test [1] and 1.4 nM in test [2].

As to `NC(=O)c1nc(Cn2nc(-c3ccc(Cl)cc3)n(C[C@H](O)C(F)(F)F)c2=O)nn1-c1ncccc1Br` [Example 4, 1-(3-Bromopyridin-2-yl)-3-({3-(4-chlorophenyl)-5-oxo-4-[(2S)-3,3,3-trifluoro-2-hydroxypropyl]-4,5-dihydro-1H-1,2,4-triazol-1-yl}methyl)-1H-1,2,4-triazole-5-carboxamide], the IC50 turned out to be 89.3 nM in test [1] and 1.23 nM in test [2].

With `NC(=O)c1nc(Cn2nc(-c3ccc(Cl)cc3)n(C[C@@H](O)C(F)(F)F)c2=O)nn1-c1ncccc1Cl` [Example 10, 3-({3-(4-Chlorophenyl)-5-oxo-4-[(2R)-3,3,3-trifluoro-2-hydroxypropyl]-4,5-dihydro-1H-1,2,4-triazol-1-yl}methyl)-1-(3-chloropyridin-2-yl)-1H-1,2,4-triazole-5-carboxamide], the figures for the IC50 in test [1] and in test [2] were 790 nM and 6.8 nM, respectively.

Take `CCOC(=O)c1cccnc1-n1nc(Cn2nc(-c3ccc(Cl)cc3)n(C[C@H](O)C(F)(F)F)c2=O)nc1C(N)=O` [Example 5, Ethyl 2-[5-carbamoyl-3-({3-(4-chlorophenyl)-5-oxo-4-[(2S)-3,3,3-trifluoro-2-hydroxypropyl]-4,5-dihydro-1H-1,2,4-triazol-1-yl}methyl)-1H-1,2,4-triazol-1-yl]nicotinate]: the values for the IC50 in test [1] and in test [2] were 1240 nM and 14.5 nM, respectively.

Regarding `NC(=O)c1nc(Cn2nc(-c3ccc(Cl)cc3)n(C[C@@H](O)C(F)(F)F)c2=O)nn1-c1cnccc1C(F)(F)F` [Example 13, 3-({3-(4-Chlorophenyl)-5-oxo-4-[(2R)-3,3,3-trifluoro-2-hydroxypropyl]-4,5-dihydro-H-1,2,4-triazol-1-yl}methyl)-1-[4-(trifluoromethyl)pyridin-3-yl]-1H-1,2,4-triazole-5-carboxamide], the IC50 is 690 nM in test [1] and 1.6 nM in test [2].

In the case of `NC(=O)c1nc(Cn2nc(-c3ccc(Cl)cc3)n(CC(=O)C(F)(F)F)c2=O)nn1-c1ncccc1Br` [Example 15, 1-(3-Bromopyridin-2-yl)-3-{[3-(4-chlorophenyl)-5-oxo-4-(3,3,3-trifluoro-2-oxopropyl)-4,5-dihydro-1H-1,2,4-triazol-1-yl]methyl}-1H-1,2,4-triazole-5-carboxamide], the IC50 in test [1] turned out to be 637 nM; in test [2] it was 13.5 nM.

With `NC(=O)c1nc(Cn2nc(-c3ccc(Cl)cc3)n(C[C@H](O)C(F)(F)F)c2=O)nn1-c1cnccc1Cl` [Example 6, 3-({3-(4-Chlorophenyl)-5-oxo-4-[(2S)-3,3,3-trifluoro-2-hydroxypropyl]-4,5-dihydro-1H-1,2,4-triazol-1-yl}methyl)-1-(4-chloropyridin-3-yl)-1H-1,2,4-triazole-5-carboxamide], the figures for the half-maximal inhibitory concentration (IC50) in test [1] and in test [2] were 25 nM and 0.57 nM, respectively.
